Target: human PCSK9 (Homo sapiens, UniProt Q8NBP7)
Test: PCSK9 ligand binding TR-FRET assay (interference with binding of human PCSK9 to human LDLR)
Details: for Max % inhibition: PCSK9 FRET assay, efficacy (Amax), 100% = 1 uM unlabeled human PCSK9, 0% = DMSO; for IC50: TR-FRET, human PCSK9 Alexa Fluor 647 / human LDLR extracellular domain-Europium Kryptate, read-out: PCSK9 FRET Assay IC50
Outline: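 Threefold compound dilutions were pre-incubated 30 min with PCSK9, after which 4 nM Europium Kryptate-tagged human LDLR ectodomain was added for a further 2 h.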

Chain of human PCSK9 (Q8NBP7 153-692): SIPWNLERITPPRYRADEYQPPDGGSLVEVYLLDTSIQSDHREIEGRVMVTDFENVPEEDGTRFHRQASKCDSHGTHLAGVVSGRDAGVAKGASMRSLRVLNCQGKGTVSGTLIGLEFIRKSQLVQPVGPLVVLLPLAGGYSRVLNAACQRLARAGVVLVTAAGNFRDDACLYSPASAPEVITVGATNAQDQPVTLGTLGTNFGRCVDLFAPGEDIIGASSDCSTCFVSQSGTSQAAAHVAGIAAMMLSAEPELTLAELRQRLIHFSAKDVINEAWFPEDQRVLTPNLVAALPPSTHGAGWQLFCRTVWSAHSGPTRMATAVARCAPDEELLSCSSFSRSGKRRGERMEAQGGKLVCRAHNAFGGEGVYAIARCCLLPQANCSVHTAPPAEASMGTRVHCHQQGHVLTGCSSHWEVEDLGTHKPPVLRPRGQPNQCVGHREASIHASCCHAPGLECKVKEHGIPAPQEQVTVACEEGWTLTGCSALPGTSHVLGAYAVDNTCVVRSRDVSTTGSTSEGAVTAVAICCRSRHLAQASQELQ
Chain of human PCSK9 (Q8NBP7 31-152 partner limits assumed): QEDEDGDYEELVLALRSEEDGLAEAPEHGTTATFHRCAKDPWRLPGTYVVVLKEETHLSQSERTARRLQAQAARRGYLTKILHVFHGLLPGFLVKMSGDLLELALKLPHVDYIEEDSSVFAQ

Row | SMILES | Max % inhibition [%] | IC50 [nM]
1 | COC[C@@H]1NC(=O)[C@H](C)N(Cc2ccc(Cl)cc2Oc2ccc(-c3cnc(CN4CCCC4)n3C)c(F)c2)C(=O)C[C@@H](Cc2ccccc2)C(=O)N(C)[C@@H](C)CNC(=O)C[C@H](Cc2ccc(Cl)cc2)N(C)C1=O [Compound 72, (2S,5S,8S,13S,16R)-16-benzyl-1-(4-chloro-2-(3-fluoro-4-(1-methyl-2-(pyrrolidin-1-ylmethyl)-1H-imidazol-5-yl)phenoxy)benzyl)-8-(4-chlorobenzyl)-5-(methoxymethyl)-2,7,13,14-tetramethyl-1,4,7,11,14-pentaazacyclooctadecane-3,6,10,15,18-pentaone] | 92.57 | 0.5
2 | COC[C@@H]1NC(=O)[C@H](C)N(Cc2ccc(Cl)cc2Oc2ccc(-c3cnc(CN(C)C)n3C)cc2)C(=O)C[C@@H](C)C(=O)N(C)[C@@H](C)CNC(=O)C[C@H](Cc2ccc(Cl)cc2)N(C)C1=O [Compound 161, (2S,5S,8S,13S,16R)-1-(4-chloro-2-(4-(2-((dimethylamino)methyl)-1-methyl-1H-imidazol-5-yl)phenoxy)benzyl)-8-(4-chlorobenzyl)-5-(methoxymethyl)-2,7,13,14,16-pentamethyl-1,4,7,11,14-pentaazacyclooctadecane-3,6,10,15,18-pentaone] | 92.62 | 14.7
3 | COC[C@@H]1NC(=O)[C@H](CCCNC(=O)OC(C)(C)C)N(Cc2ccc(Cl)cc2Oc2ccc(-c3cnc(CN4CCCC4)n3C)cc2)C(=O)C[C@@H](Cc2ccccc2)C(=O)N(C)[C@H]2CCCC[C@@H]2NC(=O)C[C@H](Cc2ccc(Cl)cc2)N(C)C1=O [Compound 191, tert-butyl (3-((4S,7S,10S,14R,16aS,20aS)-14-benzyl-11-(4-chloro-2-(4-(1-methyl-2-(pyrrolidin-1-ylmethyl)-1H-imidazol-5-yl)phenoxy)benzyl)-4-(4-chlorobenzyl)-7-(methoxymethyl)-5,16-dimethyl-2,6,9,12,15-pentaoxodocosahydrobenzo[l][1,4,7,11,14]pentaazacyclooctadecin-10-yl)propyl)carbamate] | 94.20 | 2.1
4 | COC[C@@H]1NC(=O)[C@H](C)N(Cc2ccc(Cl)cc2Oc2ccc(-c3cnc(CN(C)C)n3C)cc2)C(=O)C[C@@H](Cc2cc(F)cc(F)c2F)C(=O)N(C)[C@@H](C)CNC(=O)C[C@H](Cc2ccc(Cl)cc2)N(C)C1=O [Compound 98, (2S,5S,8S,13S,16R)-1-(4-chloro-2-(4-(2-((dimethylamino)methyl)-1-methyl-1H-imidazol-5-yl)phenoxy)benzyl)-8-(4-chlorobenzyl)-5-(methoxymethyl)-2,7,13,14-tetramethyl-16-(2,3,5-trifluorobenzyl)-1,4,7,11,14-pentaazacyclooctadecane-3,6,10,15,18-pentaone] | 98.16 | 1.9
5 | COC[C@@H]1NC(=O)[C@H](C)N(Cc2ccc(Cl)cc2Oc2ccc(-c3cnc([C@@H](C)N(C)C)n3C)cc2)C(=O)C[C@@H](Cc2ccccc2)C(=O)N(C)[C@H]2CCCC[C@@H]2NC(=O)C[C@H](Cc2ccc(Cl)cc2)N(C)C1=O [Compound 104, (4S,7S,10S,14R,16aS,20aS)-14-benzyl-11-(4-chloro-2-(4-(2-((R)-1-(dimethylamino)ethyl)-1-methyl-1H-imidazol-5-yl)phenoxy)benzyl)-4-(4-chlorobenzyl)-7-(methoxymethyl)-5,10,16-trimethylhexadecahydrobenzo[l][1,4,7,11,14]pentaazacyclooctadecine-2,6,9,12,15(3H)-pentaone] | 109.94 | 1.4
6 | COC[C@@H]1NC(=O)[C@H](CCN2CCOCC2)N(Cc2ccc(Cl)cc2Oc2ccc(-c3cnc(CN(C)C)n3C)cc2)C(=O)C[C@@H](Cc2ccccc2)C(=O)N(C)[C@H]2CCCC[C@@H]2NC(=O)C[C@H](Cc2ccc(Cl)cc2)N(C)C1=O [Compound 101, (4S,7S,10S,14R,16aS,20aS)-14-benzyl-11-(4-chloro-2-(4-(2-((dimethylamino)-methyl)-1-methyl-1H-imidazol-5-yl)phenoxy)benzyl)-4-(4-chlorobenzyl)-7-(methoxymethyl)-5,16-dimethyl-10-(2-morpholinoethyl)hexadecahydrobenzo-[l][1,4,7,11,14]pentaazacycloocta-decine-2,6,9,12,15(3H)-pentaone] | 94.32 | 1.1
7 | COC[C@@H]1NC(=O)[C@H](C)N(Cc2ccc(Cl)cc2Oc2ccc(-c3cnc(CN(C)C)n3C)cc2)C(=O)C[C@@H](Cc2ccc(C(F)F)cc2)C(=O)N(C)[C@@H](C)CNC(=O)C[C@H](Cc2ccc(Cl)cc2)N(C)C1=O [Compound 57, (2S,5S,8S,13S,16R)-1-(4-chloro-2-(4-(2-((dimethylamino)methyl)-1-methyl-1H-imidazol-5-yl)phenoxy)benzyl)-8-(4-chlorobenzyl)-16-(4-(difluoromethyl)benzyl)-5-(methoxymethyl)-2,7,13,14-tetramethyl-1,4,7,11,14-pentaazacyclooctadecane-3,6,10,15,18-pentaone] | 95.83 | 2.1
8 | COC[C@@H]1NC(=O)[C@H](C)N(Cc2c(OCC(F)(F)F)cc(Cl)cc2Oc2ccc(-c3cnc(CN4CCCC4)n3C)cc2)C(=O)C[C@@H](C)C(=O)N(C)[C@@H](C)CNC(=O)C[C@H](Cc2ccc(Cl)cc2)N(C)C1=O [Compound 7, (2S,5S,8S,13S,16R)-1-(4-chloro-2-(4-(1-methyl-2-(pyrrolidin-1-ylmethyl)-1H-imidazol-5-yl)phenoxy)-6-(2,2,2-trifluoroethoxy)benzyl)-8-(4-chlorobenzyl)-5-(methoxymethyl)-2,7,13,14,16-pentamethyl-1,4,7,11,14-pentaazacyclooctadecane-3,6,10,15,18-pentaone] | 93.00 | 9.9
9 | CC[C@H]1C(=O)N[C@@H](CO)C(=O)N(C)[C@@H](Cc2ccc(Cl)cc2)CC(=O)NC[C@H](C)N(C)C(=O)[C@H](Cc2ccccc2)CC(=O)N1Cc1ccc(Cl)cc1Oc1ccc(-c2cnc(CN(C)C)n2C)cc1 [Compound 207, (2S,5S,8S,13S,16R)-16-benzyl-1-(4-chloro-2-(4-(2-((dimethylamino)methyl)-1-methyl-1H-imidazol-5-yl)phenoxy)benzyl)-8-(4-chlorobenzyl)-2-ethyl-5-(hydroxymethyl)-7,13,14-trimethyl-1,4,7,11,14-pentaazacyclooctadecane-3,6,10,15,18-pentaone] | 102.49 | 2.2
10 | C[C@H]1C(=O)N[C@@H](COC(F)F)C(=O)N(C)[C@@H](Cc2ccc(Cl)cc2)CC(=O)N[C@H]2CCCC[C@@H]2N(C)C(=O)[C@H](Cc2ccccc2)CC(=O)N1Cc1ccc(Cl)cc1Oc1ccc(-c2cnc(CN(C)C)n2C)cc1 [Compound 79, (4S,7S,10S,14R,16aS,20aS)-14-benzyl-11-(4-chloro-2-(4-(2-((dimethylamino)methyl)-1-methyl-1H-imidazol-5-yl)phenoxy)benzyl)-4-(4-chlorobenzyl)-7-((difluoromethoxy)methyl)-5,10,16-trimethylhexadecahydrobenzo[l][1,4,7,11,14]pentaazacyclooctadecine-2,6,9,12,15(3H)-pentaone] | 103.04 | 1.8
11 | COC[C@@H]1NC(=O)[C@H](C)N(Cc2ccc(Cl)cc2Oc2ccc(-c3cnc(C4=CCOCC4)n3C)cc2)C(=O)C[C@@H](Cc2ccccc2)C(=O)N(C)[C@@H](C)CNC(=O)C[C@H](Cc2ccc(Cl)cc2)N(C)C1=O [Compound 271, (2S,5S,8S,13S,16R)-16-benzyl-1-(4-chloro-2-(4-(2-(3,6-dihydro-2H-pyran-4-yl)-1-methyl-1H-imidazol-5-yl)phenoxy)benzyl)-8-(4-chlorobenzyl)-5-(methoxymethyl)-2,7,13,14-tetramethyl-1,4,7,11,14-pentaazacyclooctadecane-3,6,10,15,18-pentaone] | 84.13 | 6.9
12 | COC[C@@H]1NC(=O)[C@H](C)N(Cc2ccc(Cl)cc2Oc2ccc(-c3cnc(CN(C)C)n3C)cc2)C(=O)C[C@@H](Cc2cccc(OC(F)F)c2)C(=O)N(C)[C@@H](C)CNC(=O)C[C@H](Cc2ccc(Cl)cc2)N(C)C1=O [Compound 238, (2S,5S,8S,13S,16R)-1-(4-chloro-2-(4-(2-((dimethylamino)methyl)-1-methyl-1H-imidazol-5-yl)phenoxy)benzyl)-8-(4-chlorobenzyl)-16-(3-(difluoromethoxy)benzyl)-5-(methoxymethyl)-2,7,13,14-tetramethyl-1,4,7,11,14-pentaazacyclooctadecane-3,6,10,15,18-pentaone] | 104.90 | 2.5
13 | COC[C@@H]1NC(=O)[C@H](CCCN2CCCC2)N(Cc2ccc(Cl)cc2Oc2ccc(-c3cnc(CN(C)C)n3C)cc2)C(=O)C[C@@H](Cc2cccc[n+]2[O-])C(=O)N(C)[C@H]2CCCC[C@@H]2NC(=O)C[C@H](Cc2ccc(Cl)cc2)N(C)C1=O [Compound 111, 2-(((4S,7S,10S,14R,16aS,20aS)-11-(4-chloro-2-(4-(2-((dimethylamino)methyl)-1-methyl-1H-imidazol-5-yl)phenoxy)benzyl)-4-(4-chlorobenzyl)-7-(methoxymethyl)-5,16-dimethyl-2,6,9,12,15-pentaoxo-10-(3-(pyrrolidin-1-yl)propyl)docosahydrobenzo[l][1,4,7,11,14]pentaazacyclooctadecin-14-yl)methyl)pyridine 1-oxide] | 103.17 | 0.9
14 | COC[C@@H]1NC(=O)[C@H](CC(=O)OC(C)(C)C)N(Cc2ccc(Cl)cc2Oc2ccc(-c3cnc(CN(C)C)n3C)cc2)C(=O)C[C@@H](Cc2ccccc2)C(=O)N(C)[C@@H](C)CNC(=O)C[C@H](Cc2ccc(Cl)cc2)N(C)C1=O [Compound 174, tert-butyl 2-((2S,5S,8S,13S,16R)-16-benzyl-1-(4-chloro-2-(4-(2-((dimethylamino)methyl)-1-methyl-1H-imidazol-5-yl)phenoxy)benzyl)-8-(4-chlorobenzyl)-5-(methoxymethyl)-7,13,14-trimethyl-3,6,10,15,18-pentaoxo-1,4,7,11,14-pentaazacyclooctadecan-2-yl)acetate] | 102.02 | 11.4

— patent US20230089867A1, “CYCLIC PENTAMER COMPOUNDS AS PROPROTEIN CONVERTASE SUBTILISIN/KEXIN TYPE 9 (PCSK9) INHIBITORS FOR THE TREATMENT OF METABOLIC DISORDER” (Novartis AG, priority 2018, published 2023)
